Reference: the NIST ThermoML archive (doi:10.1016/j.jct.2008.12.015)
± gives the expanded uncertainty stated by the source.

What was measured:
[1] = Crystal; for mass density: 298.15 K, 101.33 kPa; for Normal melting temperature: DTA
[2] = molar enthalpy of vaporization or sublimation; settings: Static calorimetry

Work on `CC(C)(C)c1ccc(-c2ccc(C(C)(C)C)cc2)cc1` [4,4'-bis(1,1-dimethylethyl)-1,1'-biphenyl] yielded a mass density [1] of 950 kg/m3, a Normal melting temperature [1] of 127.7 ± 0.4 °C and a molar enthalpy ([2]; 399.15 K, Crystal) of 23.8 ± 0.406 kcal/mol.
Molecule `CC(C)(C)c1ccc(-c2ccccc2)cc1` [4-(1,1-dimethylethyl)-1,1'-biphenyl] has a mass density [1] of 1030 kg/m3, a Normal melting temperature [1] of 51.6 ± 0.4 °C and a molar enthalpy ([2]; 322.65 K, Crystal) of 23.3 ± 0.382 kcal/mol. The molar enthalpy ([2]; 334 K, Liquid) was 18.4 ± 0.206 kcal/mol.
